DC50, Dmax and IC50 data for one molecule are collected here from patent US20250214967A1, “FAK DEGRADERS, PHARMACEUTICAL COMPOSITIONS, AND THERAPEUTIC APPLICATIONS” (Berrybio (Shanghai) Limited, priority 2022, published 2025).

Assay [1] addresses T1, FAK (Homo sapiens (Human), UniProt Q05397). Description: FAK Degradation Assay (Western blot, FAK/GAPDH). Format: cell-based. Conditions: MDA-MB-231 cells, 24 h treatment, Western blot normalized to DMSO. The gist of the method: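 H2122, MIA PaCa-2 or MDA-MB-231 cells treated with compound concentration series for 24 h at 37 °C, then lysed in RIPA. Equal-protein lysates Western blotted for FAK and GAPDH with ECL detection; FAK/GAPDH band ratios normalised to DMSO gave DC50 and Dmax.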
In general terms: A western blot detects proteins with antibodies after separation by electrophoresis.
Target sequence in this assay (Q05397 whole entry): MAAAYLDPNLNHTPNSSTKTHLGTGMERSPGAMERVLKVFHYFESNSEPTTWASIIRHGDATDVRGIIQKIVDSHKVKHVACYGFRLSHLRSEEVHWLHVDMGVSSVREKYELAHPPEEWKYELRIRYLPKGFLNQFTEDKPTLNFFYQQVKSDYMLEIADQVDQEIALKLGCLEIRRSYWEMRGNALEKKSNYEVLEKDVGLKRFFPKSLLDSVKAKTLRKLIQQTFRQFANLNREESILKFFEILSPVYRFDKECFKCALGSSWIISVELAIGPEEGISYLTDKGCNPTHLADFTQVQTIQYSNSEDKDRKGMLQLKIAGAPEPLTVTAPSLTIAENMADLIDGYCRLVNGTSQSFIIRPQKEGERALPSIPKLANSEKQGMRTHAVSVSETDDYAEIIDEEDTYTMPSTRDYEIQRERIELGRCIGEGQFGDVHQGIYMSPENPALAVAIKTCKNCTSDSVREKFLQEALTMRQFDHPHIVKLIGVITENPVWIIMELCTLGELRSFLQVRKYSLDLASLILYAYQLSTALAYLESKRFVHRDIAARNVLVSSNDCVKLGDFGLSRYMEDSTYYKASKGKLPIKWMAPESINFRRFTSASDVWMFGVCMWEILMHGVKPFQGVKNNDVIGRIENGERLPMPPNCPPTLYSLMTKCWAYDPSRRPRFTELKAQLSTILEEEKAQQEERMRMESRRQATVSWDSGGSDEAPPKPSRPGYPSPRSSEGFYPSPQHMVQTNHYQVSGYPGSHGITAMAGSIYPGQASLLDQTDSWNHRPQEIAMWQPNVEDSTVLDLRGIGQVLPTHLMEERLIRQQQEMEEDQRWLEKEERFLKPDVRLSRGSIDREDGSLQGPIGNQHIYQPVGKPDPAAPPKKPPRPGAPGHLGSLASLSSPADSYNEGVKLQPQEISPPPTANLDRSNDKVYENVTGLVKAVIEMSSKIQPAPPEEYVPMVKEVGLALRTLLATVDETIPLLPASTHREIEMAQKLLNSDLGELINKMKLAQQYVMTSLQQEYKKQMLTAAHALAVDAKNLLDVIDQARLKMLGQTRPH

For assay [2], the target named is T1, FAK. Description: FAK Kinase Assay (TR-FRET, LanthaScreen). It counts as biochemical. The note with it: FAK 1 nM, ATP 6.8 μM, fluorescein-polyGT 0.2 μM, 30 min; read-out: IC50, FAK Inhibition. How it is done: The inhibitory activity of a compound against FAK was determined in a buffer containing 5 mM HEPES, pH 7.5, 0.01% Triton, 0.5 mM EGTA, and 0.01% BRIJ™-35 in a 384-well assay plate. The assay was carried out in the presence of the FAK at 1 nM and ATP at 6.8 μM using fluorescein-polyGT (0.2 μM) as an FAK substrate. Each assay mixture was incubated at room temperature for 30 min. A LANTHASCREEN® Tb-PY20 antibody was added to each well to stop the enzymatic reaction. The plate was incubated at room temperature for 60 min before reading on an ENVISION using TR-FRET module (excitation at 340 nm and emission at 520 nm and 495 nm).
Target sequence in this assay (Q05397 whole entry, species assumed): as the sequence (Q05397 whole entry) above

Broadly, the Dmax is the greatest extent of degradation seen. By IC50 is commonly meant the concentration that inhibits the measured activity by half.

With `CN(c1nccnc1CNc1nc(Nc2ccc(C(=O)N3CCC(N4CCN(c5ccc6c(c5)C(=O)N(C5CCC(=O)NC5=O)C6=O)CC4)CC3)cc2)ncc1C(F)(F)F)S(C)(=O)=O` (stereo not drawn) [Compound A5, N-(3-(((2-((4-(4-(4-(2-(2,6-dioxopiperidin-3-yl)-1,3-dioxoisoindolin-5-yl)-piperazin-1-yl)piperidine-1-carbonyl)phenyl)amino)-5-(trifluoromethyl)pyrimidin-4-yl)amino)-methyl)pyrazin-2-yl)-N-methylmethanesulfonamide], the DC50 on FAK [1] (read-out: DC50 (half-maximal degradation concentration), FAK Degradation) was 1.4 nM. Besides, the maximal degradation (Dmax) at FAK [1] (read-out: Dmax (maximal degradation), FAK Degradation) stood at 89%. Besides, the concentration for half-maximal inhibition (IC50) on FAK [2] stood at 1.8 nM.
